Experimental data from US20250318528A1, “HERBICIDE COMPOSITION AND WEED CONTROLLING METHOD” (SUMITOMO CHEMICAL COMPANY, LIMITED, priority 2022, published 2025).
Structures can show the parent of a compound that is named as a salt.

Legend:
Format in all cases: in vivo
[1] = system: Italian ryegrass (Lolium multiflorum); experiment: Herbicidal effect, foliar spray pot test (Example 349); conditions: sprayed 21 days after seeding, evaluated after 4 days, rating 0 to 100
Protocol: (§1) The formulation (1-41) was produced in the same manner as in Example 348.
(§2) After filling a plastic pot with soil, common barnyardgrass (Echinochloa crus-galli) and Italian ryegrass (Lolium multiflorum) were seeded therein and grown in a greenhouse. The weeds were then cultivated in the greenhouse, and 21 days after seeding, a spray liquid containing the formulation (1-41) and/or EnlistOne (670 g/L of 2,4-D choline salt, manufactured by Dow AgroSciences) prepared so that the application rate of the compound (I-41) might be 20 g/ha and the application rate of EnlistOne might be 798 g/ha as an equivalent of 2,4-D choline salt (1.754 L/ha (24 fluid ounce/acre) as […]) was uniformly sprayed above the pot using a spraying machine so that the spray liquid amount might be 218 L/ha. Thereafter, the weeds were grown in the greenhouse for 4 days and the herbicidal effect was evaluated.
(§3) From the results of the herbicidal effect (value of A or B) for the single use of each of the compounds, the expected value of the herbicidal effect when the compounds were combined was determined according to the Colby's equation: […]

[2] = system: common barnyardgrass (Echinochloa crus-galli); experiment: as above; conditions: sprayed 21 days after seeding, evaluated after 4 days, rating 0 to 100
Protocol: as §1, §2, §3

weeds = experiment: Examples 1 to 23 with compound (I-15) replaced by another compound (I) (Examples 24 to 115); conditions: as Examples 1 to 23 with compound (I-15) replaced; used with pyroxasulfone, saflufenacil, flumioxazin and/or glyphosate-potassium salt; crop soybean, corn or cotton
[3] = system: Italian ryegrass (Lolium multiflorum); experiment: Herbicidal effect, foliar spray pot test (Example 346); conditions: sprayed 17 days after seeding, evaluated after 4 days, rating 0 to 100
Protocol: (§4) The compound (I-15) (55 mg), 76.5 mg of Emulsogen TS290 (polyoxyethylene tristyryl phenyl ether, manufactured by Clariant) and 76.5 mg of Phenylsulfonat CAL (mixture of 70% calcium dodecylbenzenesulfonate and 30% iso-butanol, manufactured by Clariant) were dissolved in Solvesso 200ND (aromatic hydrocarbon, manufactured by Exxon Mobile Corporation) to make 1 ml in total, thus producing an emulsifiable concentrate (hereinafter referred to as formulation (I-15)).
(§5) After filling a plastic pot with soil, common barnyardgrass (Echinochloa crus-galli) and Italian ryegrass (Lolium multiflorum) were seeded therein and grown in a greenhouse. The weeds were then cultivated in the greenhouse, and 17 days after seeding, a spray liquid containing the formulation (1-15) and/or Roundup PowerMax (660 g/L of glyphosate potassium salt, manufactured by Monsanto Company) prepared so that the application rate of the compound (I-15) might be 20 g/ha and the application rate of Roundup PowerMax might be 1262 g/ha as an equivalent of glyphosate acid (2.338 L/ha (32 fluid ounce/acre) as Roundup PowerMax) was uniformly sprayed above the pot using a spraying machine so that the spray liquid amount may be 218 L/ha. Thereafter, the weeds were grown in the greenhouse for 4 days and the herbicidal effect was evaluated.
as §3

[4] = system: common barnyardgrass (Echinochloa crus-galli); experiment: as above; conditions: sprayed 17 days after seeding, evaluated after 4 days, rating 0 to 100
Protocol: as §4, §5, §3

[5] = system: Italian ryegrass (Lolium multiflorum); experiment: Herbicidal effect, foliar spray pot test (Example 347); conditions: sprayed 17 days after seeding, evaluated after 4 days, rating 0 to 100
Protocol: (§6) The formulation (I-15) was produced in the same manner as in Example 346.
(§7) After filling a plastic pot with soil, common barnyardgrass (Echinochloa crus-galli) and Italian ryegrass (Lolium multiflorum) were seeded therein and grown in a greenhouse. The weeds were then cultivated in the greenhouse, and 17 days after seeding, a spray liquid containing the formulation (1-15) and/or Xtendimax (350 g/L of dicamba diglycolamine salt, manufactured by Monsanto Company) prepared so that the application rate of the compound (I-15) might be 20 g/ha and the application rate of Xtendimax might be 560 g/ha as an equivalent of dicamba acid (1.608 L/ha (22.0 fluid ounce/acre) as Xtendimax) was uniformly sprayed above the pot using a spraying machine so that the spray liquid amount might be 218 L/ha. Thereafter, the weeds were grown in the greenhouse for 4 days and the herbicidal effect was evaluated.
as §3

[6] = system: common barnyardgrass (Echinochloa crus-galli); experiment: as above; conditions: sprayed 17 days after seeding, evaluated after 4 days, rating 0 to 100
Protocol: as §6, §7, §3

[7] = system: Italian ryegrass (Lolium multiflorum); experiment: Herbicidal effect, foliar spray pot test (Example 348); conditions: sprayed 17 days after seeding, evaluated after 4 days, rating 0 to 100
Protocol: as §4, with “(I-41)” for “(I-15)”, “(I-41)).” for “(I-15)).”
(§8) After filling a plastic pot with soil, common barnyardgrass (Echinochloa crus-galli) and Italian ryegrass (Lolium multiflorum) were seeded therein and grown in a greenhouse. The weeds were then cultivated in the greenhouse, and 17 days after seeding, a spray liquid containing the formulation (1-41) and/or Liberty (280 g/L of glufosinate ammonium salt, manufactured by Bayer) prepared so that the application rate of the compound (I-41) might be 20 g/ha and the application rate of Liberty might be 594 g/ha as glufosinate ammonium salt (2.12 L/ha (29.0 fluid ounce/acre) as Liberty) was uniformly sprayed above the pot using a spraying machine so that the spray liquid amount might be 218 L/ha. Thereafter, the weeds were grown in the greenhouse for 4 days and the herbicidal effect was evaluated.
as §3

[8] = system: common barnyardgrass (Echinochloa crus-galli); experiment: as above; conditions: sprayed 17 days after seeding, evaluated after 4 days, rating 0 to 100
Protocol: as §4, with “(I-41)” for “(I-15)”, “(I-41)).” for “(I-15)).”
as §8, §3

[9] = 2,4-D choline salt 798 g/ha (EnlistOne) alone
[10] = compound (I-15) 20 g/ha alone, 218 L/ha
[11] = glufosinate ammonium salt 594 g/ha (Liberty) alone
[12] = compound (I-41) 20 g/ha alone, 218 L/ha
[13] = dicamba diglycolamine salt 560 g/ha (dicamba acid equivalent, Xtendimax) alone
[14] = glyphosate potassium salt 1,262 g/ha (glyphosate acid equivalent, Roundup PowerMax) alone

C[N+](C)(C)CCO.O=C([O-])COc1ccc(Cl)cc1Cl [2,4-D choline salt, reference compound]
Herbicidal effect Observed value [1, 9]: 5
Herbicidal effect Observed value [2, 9]: 10

CCOC(=O)C(CC)OC(=O)C1(Oc2cc(-n3c(=O)cc(C(F)(F)F)n(C)c3=O)c(F)cc2Cl)CC1 (centres unmarked) [Compound (I-33)]
weed control effect compared to the single use of each of the compounds (weeds): synergistic weed control effect

COC(=O)C(C)OC(=O)C1(Oc2cc(-n3c(=O)cc(C(F)(F)F)n(C)c3=O)c(F)cc2Cl)CC1 (centres unmarked) [Compound (I-15)]
Herbicidal effect Observed value [3, 10]: 20
Herbicidal effect Observed value [4, 10]: 70
Herbicidal effect Observed value [5, 10]: 20
Herbicidal effect Observed value [6, 10]: 70

CCOC(=O)C(C)OC(=O)C1(Oc2cc(-n3c(=O)cc(C(F)(F)F)n(C)c3=O)c(F)cc2Cl)CC1 (centres unmarked) [Compound (I-29)]
weed control effect compared to the single use of each of the compounds (weeds): synergistic weed control effect

CP(=O)(O)CCC(N)C(=O)O (centres unmarked) [Glufosinate ammonium salt, glufosinate ammonium salt, reference compound]
Herbicidal effect Observed value [7, 11]: 40
Herbicidal effect Observed value [8, 11]: 70

CCOC(=O)C(C)(C)OC(=O)C1(Oc2cc(-n3c(=O)cc(C(F)(F)F)n(C)c3=O)c(F)cc2Cl)CC1 [Compound (I-30)]
weed control effect compared to the single use of each of the compounds (weeds): synergistic weed control effect

CCOC(=O)C1(OC(=O)C2(Oc3cc(-n4c(=O)cc(C(F)(F)F)n(C)c4=O)c(F)cc3Cl)CC2)CC1 [Compound (I-41)]
Herbicidal effect Observed value [1, 12]: 20
Herbicidal effect Observed value [2, 12]: 70
weed control effect compared to the single use of each of the compounds (weeds): synergistic weed control effect
Herbicidal effect Observed value [7, 12]: 20
Herbicidal effect Observed value [8, 12]: 50

COc1c(Cl)ccc(Cl)c1C(=O)O.NCCOCCO [Dicamba diglycolamine salt, dicamba diglycolamine salt, reference compound]
Herbicidal effect Observed value [5, 13]: 0
Herbicidal effect Observed value [6, 13]: 5

O=C(O)CNCP(=O)(O)O [Glyphosate potassium salt, reference compound]
Herbicidal effect Observed value [3, 14]: 10
Herbicidal effect Observed value [4, 14]: 30
